This passage reports TGI results from PubChem BioAssay (NCI).

The structures appear in SMILES notation.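 Five concentrations, 48 hours, 96-well plates. TGI: concentration producing complete growth inhibition.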

Test in all cases: NCI tumour cell line growth inhibition, 48 h
Experiment [1] concerns ACHN renal.
Experiment [2] has as its system PC-3 prostate.
Experiment [3] concerns SK-OV-3 ovarian.
The subject of experiment [4] is HCC-2998 colon.
Experiment [5] concerns RXF 393 renal.
The subject of experiment [6] is UACC-257 melanoma.
Experiment [7] concerns SK-MEL-2 melanoma.
Experiment [8] relates to NCI-H226 lung.
Experiment [9] deals with CCRF-CEM leukemia.
Experiment [10] has as its system MALME-3M melanoma.
The test system of experiment [11] is COLO 205 colon.

Regarding `CCOC(=O)c1cc(C2=CCNC2=O)c(-c2cc(C)no2)[nH]1`, the TGI in experiment [1], in experiment [2], in [3], in experiment [4], in [5] and in [6] was above 100 µM in each case. The TGI in experiment [7], in experiment [8], in experiment [9], in experiment [10] and in [11] was above 100 µM in each case.
With `Clc1cc2nc(C3CCCCO3)[nH]c2cc1Cl` (stereo unspecified), the TGI in experiment [1] is above 100 µM; in [2], above 100 µM; in experiment [3], above 100 µM; in experiment [4] it was 96.9 µM; in experiment [5], above 52.6 µM; in experiment [6], above 100 µM. For the same compound, the TGI in experiment [7], in [8], in experiment [9], in experiment [10] and in [11] was above 100 µM throughout.
On to `O=C(c1cc(Cl)cc(Cl)c1)N(Cc1cccnc1)C(=S)N(Cc1cccnc1)C(=O)c1cc(Cl)cc(Cl)c1`, for which the TGI is 47.3 µM in experiment [1]; 60.6 µM in experiment [2]; above 100 µM in experiment [3]; 49.6 µM in experiment [4]; 92.7 µM in [5]; above 100 µM in [6]. Also, the TGI is 99.2 µM in experiment [7]; above 100 µM in experiment [8]; above 100 µM in experiment [9]; above 100 µM in experiment [10]; 38.5 µM in experiment [11].
Consider `O=C(CCc1ccc(O)c(O)c1)NCCc1ccccc1`, for which the TGI was above 100 µM in experiment [1]; above 51.9 µM in experiment [2]; above 100 µM in [3]; above 100 µM in experiment [4]; above 100 µM in experiment [5]; above 100 µM in [6]. In addition, the TGI was above 93.7 µM in experiment [7]; above 100 µM in [8]; above 90.8 µM in experiment [9]; above 100 µM in [10]; above 100 µM in experiment [11].
With `O=C1C=CC(=O)c2c(O)c(NCCO)c(Cl)c(O)c21`, the TGI was above 10 µM in experiment [1]; above 10 µM in experiment [2]; above 10 µM in [3]; above 7.21 µM in experiment [4]; 3.46 µM in [5]; 2.78 µM in experiment [6]. Moreover, the TGI in experiment [7] was above 6.68 µM; in experiment [8] it was above 10 µM; in [9], above 10 µM; in [10], 2.71 µM; in experiment [11], 3.4 µM.
On to `COc1cccc(C2c3cc4c(cc3OC(NNC(N)=O)C2C)OCO4)c1O` (stereo unspecified), for which the TGI was above 44.4 µM in experiment [1]; above 100 µM in experiment [2]; above 100 µM in [3]; 35.4 µM in [4]; 34.3 µM in experiment [5]; above 100 µM in [6]. Besides, the TGI in experiment [7] is 44.2 µM; in experiment [8], 9.4 µM; in experiment [9] it was above 100 µM; in experiment [10] it was above 67.7 µM; in experiment [11], 9.05 µM.
As to `COc1ccc2nc3cc([N+](=O)[O-])ccc3c(NNc3ccc([N+](=O)[O-])cc3)c2c1`, the TGI in [1] was above 100 µM; in experiment [2], above 100 µM; in [3], above 100 µM; in [4], 69.4 µM; in experiment [5], above 100 µM; in experiment [6] it was 16 µM. Also, the TGI in [7] was above 96.2 µM; in experiment [8] it was above 56.4 µM; in experiment [9], 98.6 µM; in experiment [10], above 92.5 µM; in [11], above 100 µM.
In the case of `CCN(CC)C(=S)/N=C(\SC(=S)N(CC)CC)c1ccccc1`, the TGI in [1], in [2], in experiment [3], in [4], in experiment [5] and in experiment [6] was above 100 µM in each case. Further, the TGI in [7] is above 100 µM; in experiment [8], above 100 µM; in experiment [9] it was above 100 µM; in [10], above 100 µM; in experiment [11], 72.5 µM.
As for `Cc1ccc(NC(=O)CC(=O)N2N=C(N3CCCCC3)CC2c2ccccc2)cc1` (stereo unspecified), the TGI in experiment [1], in [2], in experiment [4], in experiment [5], in [6] and in experiment [7] was above 100 µM throughout. The TGI in experiment [8], in experiment [9], in [10] and in [11] was above 100 µM in each case.
In the case of `O=C1CNc2cc(N3CCOCC3)ccc2N1`, the TGI in [1], in [2], in experiment [3], in experiment [4], in experiment [5] and in [6] was above 100 µM throughout. Moreover, the TGI in experiment [7], in [8], in experiment [9], in experiment [10] and in [11] was above 100 µM throughout.
As to `CN(CC(=O)O)CC(=O)O`, the TGI in experiment [1], in experiment [2], in experiment [3], in [4], in experiment [5] and in experiment [6] was above 100 µM in each case. For the same compound, the TGI in experiment [7], in experiment [8], in experiment [9], in experiment [10] and in experiment [11] was above 100 µM in each case.
On to `Brc1c2c(c(Br)c3nsnc13)N=S=N2`, for which the TGI was 72.2 µM in experiment [1]; above 100 µM in [2]; above 79.7 µM in [3]; above 100 µM in experiment [4]; 35.9 µM in experiment [5]; above 100 µM in experiment [6]. Besides, the TGI in experiment [7] was 51 µM; in experiment [8], above 76.6 µM; in experiment [9] it was 5.2 µM; in [10] it was above 72.6 µM; in experiment [11], above 60.1 µM.
